Measurements as given in patent publication US6482975B1, “Bis-poly(ethylene oxide) surfactants and their use as antistats in photographic materials” (Eastman Kodak Company, priority 1998, dated 2002).

Assays:
[1] = Critical micelle concentration from surface tension data in aqueous 7% w/w gelatin solution; format: physicochemical; settings: aqueous solution containing 7% wt/wt deionised Type IV bone gelatin
Method: (§1) A number of surfactants were tested for their ease of dissolution in water. Furthermore, the critical micelle concentrations (CMCs) of the surfactants were determined in aqueous solution containing 7% weight/weight deionised Type IV bone gelatin. The CMCs were determined from surface tension data by estimating the break point in the plot of surface tension against log concentration (see M. J. Rosen, Surfactants and Interfacial Phenomena, 2nd Edition, Wiley (1989), 110).

[2] = Ease of dissolution of surfactant in water; format: physicochemical
Method: as §1

## CxF2x+1(CH2)y—(CH2CH2O) z—OH [Zonyl FSN]
[1]
  CMC in molar terms (M) moles kg^−1: 0.0003 M
[2]
  Solubility in Water: Requires relatively long stirring

## Fluoroalkylthiosuccinic acid, Polyethylene glycol diester (II, R=C6F13CH2CH2,p=7)
[1]
  CMC in molar terms (M) moles kg^−1: 6e-05 M
[2]
  Solubility in Water: Dissolves easily with gentle
